Experimental data: patent publication US12427179B2, “Compositions and methods for diagnosis and treatment of neurodegenerative diseases” (EPITRACKER, INC., priority 2019, dated 2025)

Test system: LPS: Venular endothelial cells, peripheral blood mononuclear cells (TLR4 ligand)
Assay: BioMAP LPS system
Assay type: cell-based, human
Conditions: at the compound's active concentration
Description: Anti-inflammatory phenotypic profiling was conducted across 12 human primary cell-based systems as part of DiscoverX's BioMAP Diversity Plus program. These systems are designed to model complex human tissue and disease biology of the vasculature, skin, lung, and inflammatory tissues. Quantitative measurements of biomarker activities across this broad panel were used to assess each biochemical's anti-inflammatory activity at four concentrations ([…] and 2.2, 6.7 and 20 μM). […] Protein-based biomarkers from activated cell systems were measured and compared with controls. Biomarker activities were annotated when 2 or more consecutive concentrations change in the same directions relative to vehicle controls, were outside of the significance envelope and had at least one concentration with an effect size>20% (log 10 ratio)>0.1.
In the first system, human primary peripheral blood mononuclear cells and venular endothelial cells were stimulated with lipopolysaccharide (LPS) and incubated with the test agent, drug control, or vehicle control for 24 hours. In the second system, peripheral blood mononuclear cells and B cells were stimulated with α-IgM and T cell receptor ligands and incubated with the test agent, drug control, or vehicle control for 24 hours. In both systems, a negative, non-stimulated system was also included.
The Diversity PLUS panel allows test agent characterization in an unbiased way across a broad set of systems modeling various human disease states. These systems are designed to model complex human tissue and disease biology of the vasculature, skin, lung, and inflammatory tissues. Quantitative measurements of 148 biomarker activities across this broad panel, along with comparative analysis of biological activities from known bioactive agents, were used to predict and compare the efficacy and function of each selected compound at selected concentrations (6.7 and/or 20 μM).
BioMAP systems are constructed with one or more primary cell types from healthy human donors, with stimuli (such as cytokines or growth factors) added to capture relevant signaling networks that naturally occur in human tissue or pathological conditions. Vascular biology is modeled in both a Th1 (3C system) and a Th2 (4H system) inflammatory environment, as well as in a Th1 inflammatory state specific to arterial smooth muscle cells (CASM3C system). Additional systems recapitulate aspects of the systemic immune response including monocyte-driven Th1 inflammation (LPS system) or T cell stimulation (SAg system), chronic Th1 inflammation driven by macrophage activation (lMphg system) and the T cell-dependent activation of B cells that occurs in germinal centers (BT system). The BE3C system (Th1) and the BF4T system (Th2) represent airway inflammation of the lung, while the MyoF system models myofibroblast-lung tissue remodeling. Lastly, skin biology is addressed in the KF3CT system modeling Th1 cutaneous inflammation and the HDF3CGF system modeling wound healing.
Each test agent generates a signature BioMAP profile that is created from the changes in protein biomarker readouts within individual system environments. Biomarker readouts (7-17 per system) are selected for therapeutic and biological relevance, are predictive for disease outcomes or specific drug effects and are validated using agents with known mechanism of action (MoA). Each readout is measured quantitatively by immune-based methods that detect protein (e.g., ELISA) or functional assays that measure proliferation and viability. BioMAP readouts are diverse and include cell surface receptors, cytokines, chemokines, matrix molecules and enzymes. In total, the Diversity PLUS panel contains 148 biomarker readouts that capture biological changes that occur within the physiological context of the particular BioMAP system. […]

## O=C(O)CNC(=O)c1ccccc1 [hippurate]
  CD40, log10 reduction vs nontreated controls: −0.11 log10
